Experimental data from patent publication US20250143306A1, “COMBINATION FOR IMPROVING PLANT GROWTH AND/OR YIELD, FORMULATION AND METHOD FOR INCREASING PLANT GROWTH, STRESS RESISTANCE, AND YIELDS, AND USE THEREOF” (INSTITUTE OF EXPERIMENTAL BOTANY CAS CR, V.V.I., priority 2022, published 2025).
Marks after values point to notes of the source that are not given here.

Assays:
Assay type in all cases: in vivo
[1] = tested on: Winter wheat variety Barrel; assay: Nitrogen content in grains of field-grown winter wheat, Kjeldahl method (Example 4); conditions: MTU 0.4 g/ha, pyroglutamic acid 40 g/ha
Description: (§1) The field experiments were done in 2019 in the UK and they were performed in accordance with the Good Experimental Practice criteria. Winter wheat variety Barrel was used. MTU was applied by spraying at a concentration of 10 μM (2 mg/L) and a dosage of 200 L/ha (0.4 g/ha of MTU). Pyroglutamic acid was used at 40 g/ha, applied at a dose of 200 l/ha in a water solution.
Wheat grains used to make bread require a grain nitrogen content of 2.1% (w/w) or higher. Grains from each sample treatment from the experiment described in Example 3 were analyzed for nitrogen content. The analysis was done using a Kjeldahl method (Kjeldahl, J. (1883) “New method for the determination of nitrogen in organic substances), Zeitschrift für analytische Chemie, 22 (1): 366-383.

[2] = tested on: sunflower (Helianthus sp. L.); assay: Seed yield of field-grown sunflower (Example 6); conditions: Hungary 2020, MTU 2 mg/L at 300 L/ha, pyroglutamic acid 50 g/ha
Description: Seeds of sunflower (Helianthus sp. L.) were sown in Hungary in 2020 in accordance with the Good Experimental Practice criteria. MTU was applied by spraying at a concentration of 10 μM (2 mg/L) and a dosage of 300 L/ha. Pyroglutamic acid was used at 50 g/ha, applied at a dosage of 300 L/ha in a water solution.

[3] = tested on: wheat (Triticum aestivum) cv. Balitus; assay: Root and shoot dry weight and leaf nitrogen content of hydroponically grown wheat under optimal conditions (Example 1)
Description: To investigate the effect of the combinations on the weight parameters, the seeds of wheat (Triticum aestivum) cv. Balitus were sown in a hydroponic growing system (Araponics, Liege, Belgium) using Hoagland's solution (control). Twenty days after sowing, plants (except for control plants) were sprayed by aqueous solution of either MTU (10 μM) or by a nitrogen utilization enhancer alone or by a combination of MTU (10 μM) with the nitrogen utilization enhancer. The plants were grown in the Czech Republic in a glasshouse at 16-25° C. under natural and artificial light during the winter period. The root dry weight (RDW), shoot dry weight (SDW) and the nitrogen content in the leaves of at least 30 plants were measured 45 days after the plants had been sown. RDW and SDW were recorded after drying the plants at 70° C. for 2 days.

[4] = tested on: Oilseed rape variety Elgar (2018) and Elizze (2019); assay: Grain yield of field-grown oilseed rape (Example 5); conditions: MTU 0.4 g/ha, pyroglutamic acid 40 g/ha
Description: Oilseed rape variety Elgar (2018) and Elizze (2019) were grown in the UK in the years 2018 and 2019. Experiments were performed in accordance with the Good Experimental Practice criteria. MTU was applied by spraying at a concentration of 10 μM (2 mg/L) and a dosage of 200 L/ha (0.4 g/ha of MTU). Pyroglutamic acid was used at 40 g/ha, applied at a dosage of 200 L/ha in a water solution.

[5] = tested on: Winter wheat variety Barrel; assay: Grain yield of field-grown winter wheat (Example 3); conditions: MTU 0.4 g/ha, pyroglutamic acid 40 g/ha, UK 2019
Description: as §1

winter wheat plants = assay: Root dry weight of winter wheat, method of testing the synergistically effective amounts of MTU and PCA (optimal conditions)
Description: The synergistically effective amounts of MTU and pyroglutamic acid (PCA) were determined by the method of determining the root growth of winter wheat plants. […].
As a first control, MTU was applied to another group of the winter wheat plants at the following amounts: 1, 2, 4 and 8 mg/liter of the composition.
As a second control, PCA was applied to another group of the winter wheat plants at the amount of 200 mg/liter of the composition.
As a negative control, another group of the winter wheat plants was applied only water in the same amount as the compositions applied to the above-described groups.
The plants were then grown at 20° C. under natural light for a period of 45 days. The root dry weight (RDW) of at least 30 plants was measured 45 days after the plants had been sown for each group. RDW was recorded after drying the plants at 70° C. for 2 days.
The relative increase in RDW was calculated as % of control (Table 1). The % of control for combinations containing MTU: PCA in ratios 1:200, 2:200 and 4:200 was higher than the sum of % of control of only PCA group (+8.8%) with the MTU group (1, 2 or 4 mg).

[6] = tested on: wheat (Triticum aestivum) cv. Balitus; assay: Root and shoot dry weight and total chlorophyll content of wheat under drought stress conditions (Example 2)
Description: To investigate the effect of the combinations on the weight parameters, and the total content of chlorophyll, seeds of wheat (Triticum aestivum) cv. Balitus were sown in a hydroponic growing system (Araponics, Liege, Belgium) using Hoagland's solution (control). Twenty days after sowing plants (except for control plants) were sprayed by either MTU (10 μM) or by nitrogen utilization enhancers alone or with a combination of MTU (10 μM) and nitrogen utilization enhancers. The plants were grown in a glasshouse at 20-28° C. under a combination of natural and artificial light. Since the treatment (20 days after sowing), the plants received low water doses. […] The root dry weight (RDW), shoot dry weight (SDW), and total chlorophyll content (TCC) of at least 25 plants were measured at the end of the experiment—45 days after the plants had been sown. RDW and SDW were recorded after drying the plants at 70° C. for 2 days. The chlorophyll content of each plant was measured by SPAD meter reading at the end of the experiment and TCC was calculated as SPAD value per SDW.

[7] = UK 2018, application at BBCH 13
[8] = UK 2018, application at BBCH 65
[9] = UK 2019, application at BBCH 65
[10] = UK 2019, application at BBCH 70
[11] = 200 mg in 1 liter of composition

What does the source list for `O=C1CC[C@@H](C(=O)O)N1` [Pyroglutamic acid, pyroglutamic acid]?
Nitrogen content % of control ([1]; application at BBCH 32): −7.0%; Nitrogen content (%) of grains ([1]; application at BBCH 32): 1.87%; Nitrogen content % of control ([1]; application at BBCH 39): −5.5%; Nitrogen content (%) of grains ([1]; application at BBCH 39): 1.90%; Nitrogen content % of control ([1]; application at BBCH 50-55): −10.0%; Nitrogen content (%) of grains ([1]; application at BBCH 50-55): 1.81%; Yield % of control ([2]; application at BBCH 16-18): +5.0%; Yield (seed) ([2]; application at BBCH 16-18): 2.89 t/ha; Yield % of control ([2]; application at BBCH 55): +6.3%; Yield (seed) ([2]; application at BBCH 55): 2.92 t/ha; RDW % of control ([3]; concentration 200 mg/L): +6.3%; RDW (root dry weight) ([3]; concentration 200 mg/L): 0.85 g; SDW % of control ([3]; concentration 200 mg/L): +6.8%; SDW (shoot dry weight) ([3]; concentration 200 mg/L): 1.63 g; Nitrogen content in the leaves ([3]; concentration 400 mg/L): 4.65 weight %; RDW % of control ([3]; concentration 400 mg/L): +13.8%; RDW (root dry weight) ([3]; concentration 400 mg/L): 0.91 g; SDW % of control ([3]; concentration 400 mg/L): +10.5%; SDW (shoot dry weight) ([3]; concentration 400 mg/L): 1.68 g; Yield % of control [4, 7]: +5.0%; Yield (grain) [4, 7]: 3.97* t/ha; Yield % of control [4, 8]: +23.9%; Yield (grain) [4, 8]: 5.45* t/ha; Yield % of control [4, 9]: +3.5%; Yield (grain) [4, 9]: 3.83 t/ha; Yield % of control [4, 10]: +5.4%; Yield (grain) [4, 10]: 3.90 t/ha; Yield % of control ([5]; application at BBCH 32): +1.8%; Yield (grain) ([5]; application at BBCH 32): 10.167 t/ha; Yield % of control ([5]; application at BBCH 39): +2.0%; Yield (grain) ([5]; application at BBCH 39): 10.183 t/ha; Yield % of control ([5]; application at BBCH 50-55): +2.6%; Yield (grain) ([5]; application at BBCH 50-55): 10.241 t/ha; RDW % of control (winter wheat plants; [11]): +8.8%; RDW (root dry weight) (winter wheat plants; [11]): 0.99 g; RDW % of control ([6]; concentration 200 mg/L): +11.9%; RDW (root dry weight) ([6]; concentration 200 mg/L): 0.75 g; SDW % of control ([6]; concentration 200 mg/L): −1.6%; SDW (shoot dry weight) ([6]; concentration 200 mg/L): 1.2 g; RDW % of control ([6]; concentration 400 mg/L): +14.9%; RDW (root dry weight) ([6]; concentration 400 mg/L): 0.77 g; SDW % of control ([6]; concentration 400 mg/L): +0.8%; SDW (shoot dry weight) ([6]; concentration 400 mg/L): 1.23 g

With `COCCNC(=O)Nc1cnns1` [MTU, 1-(2-methoxyethyl)-3-(1,2,3-thiadiazol-5yl)urea] as the molecule, how does the “Nitrogen content % of control” value ([1]; application at BBCH 32) read?
Its value is −9.5%.

What about the “Nitrogen content (%) of grains” value ([1]; application at BBCH 32) of the same molecule?
Its value is 1.82%.

And the “Nitrogen content % of control” value ([1]; application at BBCH 39)?
The value was −2.0%.

What about the “Nitrogen content (%) of grains” value ([1]; application at BBCH 39) of the same molecule?
The value was 1.97%.

And the “Nitrogen content % of control” value ([1]; application at BBCH 50-55)?
The value was −10.0%.

And the “Nitrogen content (%) of grains” value ([1]; application at BBCH 50-55)?
The value was 1.81%.

What about the “Yield % of control” value ([2]; application at BBCH 16-18) of the same molecule?
Its value is “+12.0%”.

And the “Yield (seed)” value ([2]; application at BBCH 16-18)?
Its value is 3.08 t/ha.

What about the “Yield % of control” value ([2]; application at BBCH 55) of the same molecule?
Its value is “+4.7%”.

And the “Yield (seed)” value ([2]; application at BBCH 55)?
The value was 2.88 t/ha.

What about the “Nitrogen content in the leaves” value ([3]; concentration 2 mg/L) of the same molecule?
Its value is 4.47 weight %.

And the “RDW % of control” value ([3]; concentration 2 mg/L)?
The value was “+3.8%”.

What about the “RDW (root dry weight)” value ([3]; concentration 2 mg/L) of the same molecule?
The value was 0.83 g.

What about the “SDW % of control” value ([3]; concentration 2 mg/L) of the same molecule?
Its value is “+3.9%”.

What about the “SDW (shoot dry weight)” value ([3]; concentration 2 mg/L) of the same molecule?
Its value is 1.58 g.

And the “Yield % of control” value [4, 7]?
The value was “+2.9%”.

And the “Yield (grain)” value [4, 7]?
The value was 3.90 t/ha.

What about the “Yield % of control” value [4, 8] of the same molecule?
The value was “+4.8%”.

And the “Yield (grain)” value [4, 8]?
The value was 4.61 t/ha.

And the “Yield % of control” value [4, 9]?
Its value is “+6.2%”.

What about the “Yield (grain)” value [4, 9] of the same molecule?
The value was 3.93 t/ha.

And the “Yield % of control” value [4, 10]?
Its value is “+3.8%”.

And the “Yield (grain)” value [4, 10]?
The value was 3.84 t/ha.

And the “Yield % of control” value ([5]; application at BBCH 32)?
The value was “+2.4%”.

What about the “Yield (grain)” value ([5]; application at BBCH 32) of the same molecule?
Its value is 10.225 t/ha.

And the “Yield % of control” value ([5]; application at BBCH 39)?
Its value is “+2.4%”.

And the “Yield (grain)” value ([5]; application at BBCH 39)?
Its value is 10.230 t/ha.

What about the “Yield % of control” value ([5]; application at BBCH 50-55) of the same molecule?
Its value is “+0.5%”.

What about the “Yield (grain)” value ([5]; application at BBCH 50-55) of the same molecule?
The value was 10.033 t/ha.

What about the “RDW % of control” value (winter wheat plants; 1 mg in 1 liter of composition) of the same molecule?
Its value is “+5.5%”.

What about the “RDW (root dry weight)” value (winter wheat plants; 1 mg in 1 liter of composition) of the same molecule?
The value was 0.96 g.

And the “RDW % of control” value (winter wheat plants; 2 mg in 1 liter of composition)?
The value was “+7.7%”.

What about the “RDW (root dry weight)” value (winter wheat plants; 2 mg in 1 liter of composition) of the same molecule?
The value was 0.98 g.

And the “RDW % of control” value (winter wheat plants; 4 mg in 1 liter of composition)?
The value was “+15.4%”.

And the “RDW (root dry weight)” value (winter wheat plants; 4 mg in 1 liter of composition)?
Its value is 1.05 g.

What about the “RDW % of control” value (winter wheat plants; 8 mg in 1 liter of composition) of the same molecule?
Its value is “+18.1%”.

And the “RDW (root dry weight)” value (winter wheat plants; 8 mg in 1 liter of composition)?
Its value is 1.07 g.

And the “RDW (root dry weight)” value ([6]; concentration 2 mg/L)?
The value was 0.74 g.

And the “SDW (shoot dry weight)” value ([6]; concentration 2 mg/L)?
Its value is 1.28 g.
